Experimental findings from patent publication US20040002080A1, “Primers for use in detecting beta-lactamases” (priority 2001, published 2004) are described below.

Converted amounts (≈) assume the structure as drawn. Read-outs that look alike come from different tables or passages of the source. Where only a bound is given, the exact number is not on record here.

Experiment [1] concerns S. enterica serotype typhimurium isolate. In words: Antibiotic susceptibility testing (microdilution MIC, VITEK, NCCLS disk diffusion). Format: cell-based, Salmonella enterica serotype Typhimurium. Background: In broth dilution the organism is exposed to a series of concentrations in liquid medium.
The test system is the same in experiment [2]. In words: Phenotypic inhibitor-based ESBL tests (double disk potentiation with clavulanate). Format: cell-based, Salmonella enterica serotype Typhimurium. Particulars: for potentiation by clavulanate (ESBL tests positive): with clavulanate. The text has this:
Susceptibility testing and β-lactamase investigations. Antibiotic susceptibilities and resistance phenotypes were investigated by microdilution MIC methodology, double disk potentiation, VITEK (card GNS-424, bioMérieux, Inc. St. Louis, Mo.), NCCLS disk diffusion, and the three dimensional test (Thomson et al., Antimicrob. Agents Chemother., 35(5):1001-1003 (May 1991); and Thomson et al., Antimicrob. Agents Chemother., 36(9):1877-1882 (September 1992)).

The subject of the next experiment is K. pneumoniae strain 249. In words: Overnight microdilution susceptibility test (MicroScan panels, NCCLS criteria). Type of experiment: cell-based. The conditions noted are these: Klebsiella pneumoniae, K. pneumoniae 249, combinations as drug/clavulanate, read-out: Minimum Inhibitory Concentrations (MICs). How it is done: Susceptibility tests were performed on K. pneumoniae 249 by an overnight microdilution method with investigational dehydrated panels provided by Dade Behring MicroScan (Sacramento, Calif.) according to the manufacturer's recommendations and interpreted according to National Committee for Clinical Laboratory Standards (NCCLS) criteria and by NCCLS disc diffusion (National Committee for Clinical Laboratory Standards (NCCLS), “Methods for Dilution Antimicrobial Susceptibility Tests for Bacteria that Grow Aerobically: Approved Standard M7-A4,” Villanova, Pa. (1997); and Hanson et al., J. Antimicrob. Chemother., 44(3):377-380 (September 1999)). The test was performed using an innoculum of approximately 5×10^5 colony forming units per square milliliter (cfu/mL^2). Isoelectric focusing (IEF), cefotaxime hydrolysis and inhibitor determinations in polyacrylamide gels were performed using sonic extracts of K. pneumoniae 249 (Thomson et al., Antimicrob. Agents Chemother., 35:1001-1003 (1991)).

Experiment [3] concerns the target T1, beta-lactamase band of isoelectric point 9.1 (AmpC enzyme) of K. pneumoniae 249 (Klebsiella pneumoniae, UniProt Q48434).
T1 construct: performed using sonic extracts of K. pneumoniae 249; endogenous in cells; host or cells: Klebsiella pneumoniae strain 249 (clinical urine isolate), sonic extract
In words: Isoelectric focusing, cefotaxime hydrolysis and inhibitor determinations in polyacrylamide gels, sonic extracts. Particulars: sonic extracts of K. pneumoniae 249, polyacrylamide gel; for inhibition of the band of isoelectric point 9.1: inhibitor 1000 mM. Type of experiment: biochemical. On the procedure: The test was performed using an innoculum of approximately 5×10^5 colony forming units per square milliliter (cfu/mL^2).
The cefoxitin, ceftriaxone/clavulanate and ceftazidime/clavulanate MICs indicated two possible mechanisms of resistance, the expression of a plasmid-mediated ampC gene and/or a porin mutation. […] Three beta-lactamases were identified with isoelectric points of 5.4, 7.6, and 9.1. The band that focused at isoelectric point 9.1 hydrolyzed cefotaxime and was inhibited by cloxacillin (1000 mM), but not clavulanate (1000 mM). These findings indicated it was an AmpC enzyme.

The target of experiment [4] is T2, beta-lactamase pI 7.4 (OXA-1 or OXA-30) (Escherichia coli, UniProt P13661).
T2 construct: Crude beta-lactamase preparations derived from sonicated bacterial cultures of the S. typhimurium isolate; endogenous in cells; host or cells: Salmonella enterica serotype Typhimurium clinical stool isolate, sonicated culture
T2 sequence (P13661 26-276): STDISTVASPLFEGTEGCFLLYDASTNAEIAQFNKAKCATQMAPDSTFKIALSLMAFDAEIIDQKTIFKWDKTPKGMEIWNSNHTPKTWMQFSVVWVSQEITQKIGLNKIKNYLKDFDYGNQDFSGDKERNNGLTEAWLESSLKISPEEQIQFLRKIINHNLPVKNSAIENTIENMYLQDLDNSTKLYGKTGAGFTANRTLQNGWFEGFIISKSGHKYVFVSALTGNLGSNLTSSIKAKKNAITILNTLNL
Type of experiment: biochemical, Salmonella enterica serotype Typhimurium. Particulars: isoelectric focusing, crude preparation.

Experiment [5] has as its system beta-lactamase pI>9.0 (AmpC). In words: Isoelectric focusing with general inhibitor characteristics, crude beta-lactamase preparations. Type of experiment: biochemical, Salmonella enterica serotype Typhimurium. Particulars: crude preparation. On the procedure:
(§1) Crude beta-lactamase preparations derived from sonicated bacterial cultures of the S. typhimurium isolate and strains producing reference beta-lactamases were assessed for beta-lactamase pls and general inhibitor characteristics by isoelectric focusing (Thomson et al., Antimicrob. Agents Chemother., 35(5):1001-1003 (May 1991).

Experiment [6] deals with beta-lactamase pI 8.2 (SHV-9). The experiment is described as above. Format: biochemical, Salmonella enterica serotype Typhimurium. The conditions noted are these: crude preparation. On the procedure: as §1

T1 sequence (Q48434 21-381): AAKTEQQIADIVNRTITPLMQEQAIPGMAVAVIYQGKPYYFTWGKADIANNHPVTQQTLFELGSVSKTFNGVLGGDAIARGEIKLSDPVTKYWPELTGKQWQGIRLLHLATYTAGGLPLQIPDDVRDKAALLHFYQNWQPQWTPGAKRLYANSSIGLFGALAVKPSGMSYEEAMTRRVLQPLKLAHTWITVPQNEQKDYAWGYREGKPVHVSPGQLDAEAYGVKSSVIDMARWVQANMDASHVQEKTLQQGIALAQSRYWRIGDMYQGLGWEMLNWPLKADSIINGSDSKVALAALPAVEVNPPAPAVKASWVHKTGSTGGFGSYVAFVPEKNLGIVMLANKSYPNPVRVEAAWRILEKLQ

For the compound Cotrimoxazole, the “susceptibility category (susceptible / intermediate / resistant)” value in experiment [1] was “resistant”. Moreover, the MIC in experiment [1] (Table 2) was more than 320 µg/mL.
Turning to `CO/N=C(\C(=O)N[C@@H]1C(=O)N2C(C(=O)[O-])=C(C[n+]3cccc4c3CCC4)CS[C@H]12)c1csc(N)n1` [cefpirome], in experiment [2], the “potentiation by clavulanate (ESBL tests positive)” value (shortened to “potentiation by clavulanate”) is “potentiation”.
Turning to `O=C(N[C@H](CO)[C@H](O)c1ccc([N+](=O)[O-])cc1)C(Cl)Cl` [Chloramphenicol], the “susceptibility category (susceptible / intermediate / resistant)” value in experiment [1] is listed as “resistant”. Moreover, the MIC in experiment [1] (Table 2) is more than 256 µg/mL.
Take `COCC1=C(C(=O)O)N2C(=O)[C@@H](NC(=O)/C(=N\OC)c3csc(N)n3)[C@H]2SC1` [cefpodoxime]: the MIC in the experiment with K. pneumoniae strain 249 was more than 4 µg/mL.
As for `C[C@@H](O)[C@H]1C(=O)N2C(C(=O)O)=C([C@H]3CCCO3)S[C@H]12` [Faropenem], the MIC in experiment [1] (Salmonella enterica, read-out: MIC) came out at 2 µg/mL (≈ 7.01 µM); in experiment [1] (Table 2), 2 µg/mL (≈ 7.01 µM).
`C=CC1=C(C(=O)O)N2C(=O)[C@@H](NC(=O)/C(=N\OCC(=O)O)c3csc(N)n3)[C@H]2SC1` [Cefixime] displayed an MIC in experiment [1] (Table 2) of more than 128 µg/mL.
In turn, `CC=CC1=C(C(=O)O)N2C(=O)[C@@H](NC(=O)[C@H](N)c3ccc(O)cc3)[C@H]2SC1` [Cefprozil] returned an MIC in experiment [1] (Table 2) of more than 128 µg/mL.
Turning to `O=C(O)c1cn(C2CC2)c2cc(N3CCNCC3)c(F)cc2c1=O` [Ciprofloxacin], the “susceptibility category (susceptible / intermediate / resistant)” value in experiment [1] was “susceptible”.
For `CCN1CCN(C(=O)N[C@@H](C(=O)N[C@@H]2C(=O)N3[C@@H]2SC(C)(C)[C@@H]3C(=O)O)c2ccccc2)C(=O)C1=O` [piperacillin], the MIC in the experiment on K. pneumoniae strain 249 is more than 64 µg/mL.
On to `CO/N=C(\C(=O)N[C@@H]1C(=O)N2C(C(=O)O)=C(CSc3nc(=O)c(=O)[nH]n3C)CS[C@H]12)c1csc(N)n1` [Ceftriaxone], for which the results for the MIC (with K. pneumoniae strain 249; in experiment [1] (Table 2)) were 16 µg/mL and more than 128 µg/mL, respectively.
In the case of `C[C@H]1[C@H](NC(=O)/C(=N\OC(C)(C)C(=O)O)c2csc(N)n2)C(=O)N1S(=O)(=O)O` [aztreonam], in experiment [1], the “susceptibility category (susceptible / intermediate / resistant)” value is “resistance”. The “reversal of resistance by the addition of clavulanate” value in experiment [2] (addition of clavulanate) is listed as “partially reversible”. For the same compound, in experiment [2], the “potentiation by clavulanate” value was “potentiation”.
Gentamicin had an MIC in experiment [1] (Table 2) of more than 16 µg/mL.
Consider `Cc1onc(-c2ccccc2Cl)c1C(=O)N[C@@H]1C(=O)N2[C@@H]1SC(C)(C)[C@@H]2C(=O)O` [cloxacillin], for which, in experiment [3], the “inhibition of the band of isoelectric point 9.1” value is reported as “inhibited”. Also, in experiment [4], the “inhibition of beta-lactamase pI 7.4” value is “not”. The “inhibition of beta-lactamase pI>9.0” value in experiment [5] is given as “inhibited”.
In the case of `CC1(C)S[C@@H]2[C@H](NC(=O)[C@H](C(=O)O)c3ccsc3)C(=O)N2[C@H]1C(=O)O` [ticarcillin], the MIC with K. pneumoniae strain 249 is more than 64 µg/mL.
On to `C[C@@H](O)[C@H]1C(=O)N2C(C(=O)O)=C(S[C@@H]3CN[C@H](C(=O)N(C)C)C3)[C@H](C)[C@H]12` [Meropenem], for which the values for the MIC (in the experiment with K. pneumoniae strain 249; in experiment [1] (Table 2)) were not above 0.5 µg/mL and “less than 2”, respectively. Besides, in experiment [1], the “susceptibility category (susceptible / intermediate / resistant)” value is reported as “susceptible”.
For `O=C(O)[C@H]1/C(=C/CO)O[C@@H]2CC(=O)N21` [clavulanate], the “inhibition of the band of isoelectric point 9.1” value in experiment [3] was “not”. The “inhibition of beta-lactamase pI 7.4” value in experiment [4] is on record as “inhibited”. Moreover, in experiment [6], the “inhibition of beta-lactamase pI 8.2” value is reported as “inhibited”. In addition, the “inhibition of beta-lactamase pI>9.0” value in experiment [5] was “not”.
Take `CO[C@@]1(NC(=O)Cc2cccs2)C(=O)N2C(C(=O)O)=C(COC(N)=O)CS[C@@H]21` [cefoxitin]: the MIC with K. pneumoniae strain 249 is more than 32 µg/mL. Also, the “susceptibility category (susceptible / intermediate / resistant)” value in experiment [1] was “resistance”.
As for `NCC[C@H](O)C(=O)N[C@@H]1C[C@H](N)[C@@H](O[C@H]2O[C@H](CN)[C@@H](O)[C@H](O)[C@H]2O)[C@H](O)[C@H]1O[C@H]1O[C@H](CO)[C@@H](O)[C@H](N)[C@H]1O` [Amikacin], the MIC in experiment [1] (Table 2) was more than 64 µg/mL.
In turn, `C[C@H]1COc2c(N3CCN(C)CC3)c(F)cc3c(=O)c(C(=O)O)cn1c23` [Levofloxacin] gave an MIC in experiment [1] (Table 2) of 0.5 µg/mL (≈ 1.38 µM).
Regarding `CO/N=C(\C(=O)N[C@@H]1C(=O)N2C(C(=O)O)=C(COC(C)=O)CS[C@H]12)c1csc(N)n1` [cefotaxime], the “cefotaxime hydrolysis by the band of isoelectric point 9.1” value in experiment [3] is listed as “hydrolyzed”. Besides, the “susceptibility category (susceptible / intermediate / resistant)” value in experiment [1] is “resistance”.
Regarding `NC[C@H]1O[C@H](O[C@H]2[C@H](O)[C@@H](O[C@H]3O[C@H](CO)[C@@H](O)[C@H](N)[C@H]3O)[C@H](N)C[C@@H]2N)[C@H](N)C[C@@H]1O` [Tobramycin], in experiment [1] (Table 2), the MIC was more than 16 µg/mL.
The same measure, in the same setting: the figure for `CO/N=C(\C(=O)N[C@@H]1C(=O)N2C(C(=O)O)=C(COC(N)=O)CS[C@H]12)c1ccco1` [Cefuroxime] is more than 256 µg/mL.
As for `CC1(C)S[C@@H]2[C@H](NC(=O)[C@H](N)c3ccccc3)C(=O)N2[C@H]1C(=O)O` [Ampicillin], the MIC in the experiment with K. pneumoniae strain 249 was more than 16 µg/mL; in experiment [1] (Table 2) it was more than 256 µg/mL.
As for `C[C@@H](O)[C@H]1C(=O)N2C(C(=O)O)=C(SCCN=CN)C[C@H]12` [Imipenem], the MIC in experiment [1] (Table 2) is 0.25 µg/mL (≈ 0.835 µM).
With `CC(=O)OCC1=C(C(=O)O)N2C(=O)[C@@H](NC(=O)Cc3cccs3)[C@H]2SC1` [Cephalothin], the MIC with K. pneumoniae strain 249 was more than 16 µg/mL; in experiment [1] (Table 2) it was more than 32 µg/mL.
For the compound `CC(C)(O/N=C(\C(=O)N[C@@H]1C(=O)N2C(C(=O)[O-])=C(C[n+]3ccccc3)CS[C@H]12)c1csc(N)n1)C(=O)O` [Ceftazidime], the values for the MIC (in the experiment with K. pneumoniae strain 249; in experiment [1] (Table 2)) were 16 µg/mL and more than 32 µg/mL, respectively. Moreover, the “susceptibility category (susceptible / intermediate / resistant)” value in experiment [1] is listed as “resistance”.
Turning to `CO/N=C(\C(=O)N[C@@H]1C(=O)N2C(C(=O)[O-])=C(C[N+]3(C)CCCC3)CS[C@H]12)c1csc(N)n1` [cefepime], the MIC with K. pneumoniae strain 249 was not above 4 µg/mL. Besides, the “susceptibility category (susceptible / intermediate / resistant)” value in experiment [1] is “intermediate”. For the same compound, the “potentiation by clavulanate” value in experiment [2] is “potentiation”.
